Assay results reported in patent US5723494A, “Derivatives of glutamic and aspartic acids, a method of preparing them, and their use as drugs for enhancing memory and learning” (priority 1993, dated 1998).

Columns and labels:
[1] = Memory-enhancement activity in the passive avoidance test in the rat; assay type: in vivo, rat (male Wistar); details: rat
[2] = Antiamnesic activity in the mouse (step-down passive avoidance, amnesia induced by ECS); assay type: in vivo, mouse (CD1 male); details: mouse
[3] = Antidepressant activity in the behavioural despair test in the mouse; assay type: in vivo, mouse (male CD1)

CC1(C)CCC(NC(=O)[C@@H](N)CCC(=O)O)CC1 [Compound 23, 1-(4,4-dimethylcyclohexyl)-L-isoglutamine[4-amino-5-(4',4'-dimethylcyclohexylamine)-5-oxopentanoic acid (S)]]
change in vivo at 0.1 mg/kg ([1]; 96 h, 0.1 mg/kg IP, retest on the 4th day, 6 treatments, read-out: % variation vs controls (FS) in step through latency): 11%
change in vivo at 1 mg/kg ([1]; 96 h, 1 mg/kg IP, retest on the 4th day, 6 treatments, read-out: % variation vs controls (FS) in step through latency): 19%
change in vivo at 10 mg/kg ([1]; 96 h, 10 mg/kg IP, retest on the 4th day, 6 treatments, read-out: % variation vs controls (FS) in step through latency): 43%
ED30 ([1]; IP, read-out: ED30 (dose increasing the latency time (STL) by 30%)): 2.3 mg/kg
Activity in increasing the avoidance time (in words) ([1]; IP, retest on the 4th day): considerable activity in increasing the avoidance time
Antiamnesic activity (in words) ([2]; OS): particularly remarkable
change in vivo at 0.1 mg/kg ([2]; po, 0.1 mg/kg OS, retest 24 h after training, read-out: Reversal of the amnesia (% vs controls), as the increase in the Step Down Latency): 20%
change in vivo at 1 mg/kg ([2]; po, 1 mg/kg OS, retest 24 h after training, read-out: Reversal of the amnesia (% vs controls), as the increase in the Step Down Latency): 40%
change in vivo at 3 mg/kg ([2]; po, 3 mg/kg OS, retest 24 h after training, read-out: Reversal of the amnesia (% vs controls), as the increase in the Step Down Latency): 37%
change in vivo at 10 mg/kg ([2]; po, 10 mg/kg OS, retest 24 h after training, read-out: Reversal of the amnesia (% vs controls), as the increase in the Step Down Latency): 61%
change in vivo at 30 mg/kg ([2]; po, 30 mg/kg OS, retest 24 h after training, read-out: Reversal of the amnesia (% vs controls), as the increase in the Step Down Latency): 67%
ED50 ([2]; po, OS, 60 min before training, read-out: ID50 (antiamnesic activity, dose inhibiting the amnesic effect of the ECS by 50%)): 4.6 mg/kg
inhibition in vivo at 3 mg/kg ([3]; 5 min, 3 mg/kg IP, 5 minutes, read-out: Decrease in immobility (as %) vs the controls): 14%
inhibition in vivo at 10 mg/kg ([3]; 5 min, 10 mg/kg IP, 5 minutes, read-out: Decrease in immobility (as %) vs the controls): 31%
inhibition in vivo at 30 mg/kg ([3]; 5 min, 30 mg/kg IP, 5 minutes, read-out: Decrease in immobility (as %) vs the controls): 94%
Antidepressant activity (in words) ([3]; IP): antidepressant effect of the same order of magnitude as the comparison drug used, amitriptyline
ED50 ([3]; IP, read-out: ED50 (dose antagonising immobility time by 50%)): 11.1 mg/kg
